The text below walks through data of BindingDB's records for doi:10.1021/co200147y (Bristol-Myers Squibb Research and Development, 2012).

Where “and” joins values, the source holds several entries; their conditions need not be identical. Equal entries are not always repeated.

The target of the experiment is Cannabinoid receptor 1 (Homo sapiens, UniProt P21554). The experiment is described as follows: Inhibition Assay. An excerpt: Inhibition assay using hCB1.
Cannabinoid receptor 1, sequence (P21554 whole entry): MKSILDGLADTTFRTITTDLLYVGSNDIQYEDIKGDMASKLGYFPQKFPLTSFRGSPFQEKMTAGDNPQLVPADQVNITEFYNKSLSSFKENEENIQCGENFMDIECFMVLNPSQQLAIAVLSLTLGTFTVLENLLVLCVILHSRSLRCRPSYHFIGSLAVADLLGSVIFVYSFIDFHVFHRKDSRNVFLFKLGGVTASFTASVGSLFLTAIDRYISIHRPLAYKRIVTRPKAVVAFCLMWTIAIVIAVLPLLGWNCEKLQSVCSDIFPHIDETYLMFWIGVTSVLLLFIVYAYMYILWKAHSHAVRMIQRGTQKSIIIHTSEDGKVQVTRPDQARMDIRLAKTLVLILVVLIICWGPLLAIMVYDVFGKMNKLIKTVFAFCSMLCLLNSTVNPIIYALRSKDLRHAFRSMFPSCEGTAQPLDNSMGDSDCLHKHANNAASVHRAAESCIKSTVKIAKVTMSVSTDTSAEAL
As to `Cc1cccc(-n2ncc(C(=O)NCC3CC3)c2-c2ccc(-c3ccccc3)cc2)c1` [hCB1 Inhibitor, 2{5,1,7}], the IC50 is 620 nM. This counts as sub-micromolar. To `Cc1cccc(-n2ncc(C(=O)NCCCc3ccccc3)c2-c2ccc(-c3ccccc3)cc2)c1C` [hCB1 Inhibitor, 2{1,1,8}] belongs 200 nM and 40 nM; to `O=C(NCCCc1ccccc1)c1cnn(-c2cccc3ccccc23)c1-c1ccc(-c2ccccc2)cc1` [hCB1 Inhibitor, 2{1,1,3}], 90 nM; to `Cc1ccccc1-n1ncc(C(=O)NCCCc2ccccc2)c1-c1ccc(-c2ccccc2)cc1` [hCB1 Inhibitor, 2{1,1,6}], 200 nM. In the case of `CCCCNC(=O)c1cnn(-c2cccc(C)c2)c1-c1ccc(-c2ccccc2)cc1` [hCB1 Inhibitor, 2{6,1,7}] it was 2700 nM; in that of `CCCCNC(=O)c1cnn(-c2cccc(Cl)c2)c1-c1ccc(-c2ccccc2)cc1` [hCB1 Inhibitor, 2{6,1,1}], 500 nM and 350 nM; in that of `O=C(NCCCc1ccccc1)c1cnn(-c2cccc(Cl)c2)c1-c1ccc(-c2ccccc2)cc1` [hCB1 Inhibitor, 2{1,1,1}], 410 nM and 200 nM.

For `Cc1cccc(-n2ncc(C(=O)NCCCc3ccccc3)c2-c2ccc(-c3ccccc3)cc2)c1` [hCB1 Inhibitor, 2{1,1,7}], half-maximal inhibition (IC50) was put at 200 nM. To `O=C(NCC1CC1)c1cnn(-c2cccc(Cl)c2)c1-c1ccc(-c2ccccc2)cc1` [hCB1 Inhibitor, 2{5,1,1}] belongs 270 nM and 190 nM; to `Cc1ccccc1-n1ncc(C(=O)NCC2CC2)c1-c1ccc(-c2ccccc2)cc1` [hCB1 Inhibitor, 2{5,1,6}], 390 nM. `CCCCNC(=O)c1cnn(-c2ccccc2C)c1-c1ccc(-c2ccccc2)cc1` [hCB1 Inhibitor, 2{6,1,6}] registered an IC50 of 2800 nM.

One may read the IC50 as the concentration at which inhibition is half-maximal. A high value points to lower potency.
